# “Also recorded” adds a separate entry of the source. Like-named read-outs stand apart in the source and are kept apart here.
# How the values were obtained:
# N. fowleri ENO (NfENO) = N. fowleri ENO (NfENO) (Naegleria fowleri, UniProt A0A6A5BXC3); experiment: NfENO coupled enzyme activity/inhibition assay (PK/LDH, NADH fluorescence); format: biochemical
# Protocol: (§1) ENO was assayed in triplicate using a coupled reaction to measure enzyme activity. Briefly, enzyme (50 nM) in assay buffer (100 mM HEPES, pH 8.0, 3.3 mM MgSO4) was loaded in black 96-well plates with or without inhibitors. To start the reaction, substrate buffer (3.75 mM 2-PG, 1.75 mM ADP, 1 U of pyruvate kinase/lactate dehydrogenase, and 0.4 mM NADH in assay buffer) was added to each well. The rate of reduction in fluorescence (excitation: 360 nm; emission: 460 nm), a measure of NAD production, was then scored on a Biotek Synergy H1 microplate reader every 20 seconds for 4 minutes. Kinetic analyses were performed with Prism 9.0 (GraphPad Software, San Diego, CA) using the Michaelis-Menten model. For assays involving inhibitors, compounds (in DMSO) were incubated at RT with enzyme in assay buffer […] for 15 minutes prior to initiation of the reaction by addition of the substrate. All assays were performed in triplicate with vehicle control (DMSO) included.
# [1] = molecular target: human ENO2 (gamma-enolase, HsENO2) (Homo sapiens, UniProt P09104); experiment: Human ENO2 coupled enzyme inhibition assay; format: biochemical
# human ENO2 (gamma-enolase, HsENO2), sequence (P09104 whole entry): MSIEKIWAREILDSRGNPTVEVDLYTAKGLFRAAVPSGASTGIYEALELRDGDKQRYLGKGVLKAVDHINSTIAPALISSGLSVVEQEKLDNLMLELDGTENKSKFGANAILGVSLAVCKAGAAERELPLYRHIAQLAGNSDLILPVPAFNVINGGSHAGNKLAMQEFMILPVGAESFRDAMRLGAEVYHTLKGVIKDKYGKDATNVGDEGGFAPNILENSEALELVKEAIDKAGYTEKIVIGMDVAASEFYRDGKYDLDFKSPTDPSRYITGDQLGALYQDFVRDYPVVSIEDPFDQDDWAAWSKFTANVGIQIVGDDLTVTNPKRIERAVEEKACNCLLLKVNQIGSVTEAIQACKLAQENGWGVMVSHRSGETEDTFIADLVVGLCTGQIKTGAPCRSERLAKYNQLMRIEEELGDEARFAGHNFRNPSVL
# Protocol: as §1
# [2] = system: N. fowleri strain Nf69 (ATCC 30215) trophozoites; experiment: N. fowleri trophozoite viability, CellTiter-Glo, 48 hr; format: cell-based, Naegleria fowleri; details: for EC50: Naegleria fowleri
# Protocol: N. fowleri strain Nf69 (ATCC 30215) or strain TY (ATCC 30107) trophozoites and N. gruberi strain NEG-M (ATCC 30224) were cultured axenically as previously described. Briefly, parasites were seeded at 1 x 10^4 cells/mL (N. fowleri) or 5 x 10^3 cells/mL (N. gruberi) in 100 μL of the indicated medium in white TC-treated 96-well plates (Thermo Scientific Nunc Microwell 136101). For assays under standard growth conditions ("+ glc"), N. fowleri cells were seeded into Nelson’s Complete Media (NCM, 0.17% liver infusion broth (BD Difco, Franklin Lakes, NJ), 0.17% glucose, 0.012% sodium chloride, 0.0136% potassium phosphate monobasic, 0.0142% sodium phosphate dibasic, 0.0004% calcium chloride, 0.0002% magnesium sulfate, 10% heat-inactivated fetal bovine serum (FBS), 1% penicillin-streptomycin) at 37°C. For assays in modified medium ("-glc/+gly"), cells were seeded into the media without glucose but supplemented with 10 mM glycerol. For standard growth of N. gruberi, cells were seeded into PYNFH-complete media (1.0% peptone, 1.0% yeast extract, 0.1% yeast nucleic acid, 0.0015% folic acid, 0.0001% hemin, 0.0362% potassium phosphate monobasic, 0.05% disodium phosphate, 10% heat-inactivated fetal bovine serum (FBS), 1% penicillin-streptomycin) at 25°C. For determination of EC50 value, concentrations of drug ranging from 0.07826–5 μM were used. After culturing for 48 hr (37°C, 5% CO2 for N. fowleri, 25°C, 5% CO2 for N. gruberi) in the presence of compound or vehicle, plates were equilibrated to RT for 15 min and CellTiter Glo reagent (Promega, Madison, WI, USA) was added followed by orbital shaking for 2 min. After an additional incubation (RT, 10 min), luminescence was scored on a BioTek Synergy H1 mircoplate reader. Parasite density was scored and kinetic analyses were performed with Prism 9.0 (GraphPad Software, San Diego, CA) using the Michaelis-Menten model. All viability assays were performed in technical triplicates with at least three biological replicates.
# [3] = HEK-293 cytotoxicity, CellTiter Blue, 48 hr; format: cell-based; details: human, HEK-293 cells (ATCC CRL-1573); HEK-293, 48 hr; no superscript in Fig 1; read-out: Human cell line CC50
# Protocol: HEK-293 (ATCC CRL-1573) cells were cultured axenically in Dulbecco’s Modified Eagle Medium with 4.5g/L D-glucose, L-glutamine (Gibco 11965) and 10% fetal bovine serum (FBS) at 37°C, 5% CO2. […] After a 48 hr incubation (37°C, 5% CO2), CellTiter Blue reagent (Promega, Madison, WI, USA) was added to each well. After an additional 3-hour incubation (37°C, 5% CO2) with reagent, fluorescence was scored on a a BioTek Synergy H1 mircoplate reader and percent growth inhibition values were solved.
# N. gruberi = N. gruberi growth; format: cell-based, Naegleria gruberi
# Protocol: N. fowleri strain Nf69 (ATCC 30215) or strain TY (ATCC 30107) trophozoites and N. gruberi strain NEG-M (ATCC 30224) were cultured axenically as previously described. Briefly, parasites were seeded at 1 x 10^4 cells/mL (N. fowleri) or 5 x 10^3 cells/mL (N. gruberi) in 100 μL of the indicated medium in white TC-treated 96-well plates (Thermo Scientific Nunc Microwell 136101). For assays under standard growth conditions ("+ glc"), N. fowleri cells were seeded into Nelson’s Complete Media (NCM, 0.17% liver infusion broth (BD Difco, Franklin Lakes, NJ), 0.17% glucose, 0.012% sodium chloride, 0.0136% potassium phosphate monobasic, 0.0142% sodium phosphate dibasic, 0.0004% calcium chloride, 0.0002% magnesium sulfate, 10% heat-inactivated fetal bovine serum (FBS), 1% penicillin-streptomycin) at 37°C. For assays in modified medium ("-glc/+gly"), cells were seeded into the media without glucose but supplemented with 10 mM glycerol. […] After an additional incubation (RT, 10 min), luminescence was scored on a BioTek Synergy H1 mircoplate reader. Parasite density was scored and kinetic analyses were performed with Prism 9.0 (GraphPad Software, San Diego, CA) using the Michaelis-Menten model. […]
# Balamuthia mandrillaris = Balamuthia mandrillaris growth; format: cell-based
# Entamoeba histolytica = Entamoeba histolytica growth; format: cell-based
# N. fowleri trophozoites = experiment: Unbiased metabolomics of amoebae after HEX treatment (2DLC-MS); format: cell-based, Naegleria fowleri; details: cells grown in glycerol, HEX-treated vs untreated
# Protocol: For unbiased metabolomics analyses, N. fowleri trophozoites were grown to near 100% confluency in 6-well TC-treated plates (Thermo Scientific Nunclon Delta Surface 140685). […] Samples were then washed three times in RT PBS prior to the addition of ice-cold CH3CN. Plates were then incubated at –20°C for 20 min, followed by the addition of ice-cold nanopure H2O and removal of the solution to sterile microcentrifuge tubes. This process was repeated twice, and the total volume of extraction material was adjusted to 2.5 x 10^6 cell equivalents per sample. Tubes were stored at –80°C prior to analysis.
# Each cell sample was vortexed with glass beads for 5 min in a MM200 Mix Grinder (Retsch USA, Newtown, PA, USA). The mixture was centrifuged at 14,000 rpm for 20 min at 4°C. The supernatant was transferred into a new tube and lyophilized overnight. The dried sample was reconstituted in 60 μL 50% CH3CN and analyzed in random order on a parallel two-dimensional liquid chromatography-mass spectrometry (2DLC-MS) system, a Thermo DIONEX UltiMate 3000 HPLC system (Thermo Fisher Scientific, Waltham, MA, USA) coupled with a Thermo Q Exactive HF Hybrid Quadrupole-Orbitrap Mass Spectrometer (Thermo Fisher Scientific, Waltham, MA, USA). […] Each sample was analyzed by the 2DLC-MS under both positive (+) and negative (–) modes to obtain full MS data for metabolite quantification. […]
# [4] = system: N. fowleri strain 69 trophozoites; experiment: Rat model of N. fowleri infection, nasal instillation treatment; format: in vivo, Naegleria fowleri
# From the text: Twenty-four CD rats (12 females, 12 males, aged 42–48 days, Charles River) housed in pairs were infected by nasal instillation with 2.5 x 10^5 N. fowleri strain 69 trophozoites that had been isolated after passage through mice to ensure virulence. Rats were provided unlimited food and water throughout the duration of the experiment. The two groups consisted of equal numbers of males and females. […] Rodents were monitored carefully and euthanized when symptoms of infection, including failure to respond to stimuli or seizures, were evident. After 17 days, surviving animals were sacrificed and brains were removed to assess cure.
# [5] = Intranasal dose-finding tolerability in uninfected CD rats; format: in vivo, rat; details: 1.6, 16, or 120 mg/kg HEX in PBS once daily for five days
# [6] = system: N. fowleri strain Nf69 (ATCC 30215) trophozoites; experiment: N. fowleri trophozoite viability, CellTiter-Glo, 48 hr; format: cell-based; details: Naegleria fowleri, ATCC30215, read-out: EC50 after short exposure
# [7] = system: ENO1-rescued glioma and other control cells; set-up: method as in PMID 33230295; details: cited from earlier work
# [8] = system: intracranial orthotopic ENO1-deficient tumors; set-up: method as in PMID 33230295; details: cited from earlier work
# [9] = set-up: method as in PMID 33230295; details: non-human primates, cited from earlier work
# [10] = set-up: method as in PMID 33230295; details: rats; cited from earlier work
# Human cell line = details: read-out: Human cell line CC50, cited from earlier work
# ENO1-/- glioma cells = details: read-out: EC50 against ENO1-/- glioma cells; cited from earlier work
# [11] = recombinant NfENO, 50 nM enzyme, 15 min preincubation with compound, read-out: NfENO IC50
# [12] = 15 min preincubation with compound, read-out: HsENO2 IC50
# [13] = ATCC30215, 48 h, read-out: N. fowleri EC50
# [14] = value with superscript 3 in Fig 1, footnote not given, ref superscript 3
# N. fowleri ENO (NfENO), sequence (A0A6A5BXC3 entry or part of it): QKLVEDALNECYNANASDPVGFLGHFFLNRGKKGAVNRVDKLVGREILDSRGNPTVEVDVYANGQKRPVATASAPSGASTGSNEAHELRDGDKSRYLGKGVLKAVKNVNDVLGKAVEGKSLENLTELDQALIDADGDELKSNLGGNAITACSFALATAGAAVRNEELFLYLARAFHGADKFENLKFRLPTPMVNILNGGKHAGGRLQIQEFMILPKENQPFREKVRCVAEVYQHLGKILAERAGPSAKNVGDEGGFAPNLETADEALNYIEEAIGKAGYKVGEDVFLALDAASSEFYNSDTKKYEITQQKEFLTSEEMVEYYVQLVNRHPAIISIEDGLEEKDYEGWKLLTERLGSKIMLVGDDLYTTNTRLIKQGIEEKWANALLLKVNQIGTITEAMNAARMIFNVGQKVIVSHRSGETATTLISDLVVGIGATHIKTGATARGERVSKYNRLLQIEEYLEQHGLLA
compound,measurement,setting,value
"O=C(O)[C@@H](CO)OP(=O)(O)O [2-PG, 2-phosphoglycerate]",Km,"N. fowleri ENO (NfENO); truncation residues 44–512, NafoA.00379.a.B5.PW38978, read-out: apparent KM for 2-PG",923 ± 0.336 µM
O=C1C(P(=O)(O)O)CCN1OCc1ccccc1 (centres unmarked) [Benzyl- deoxy- SF2312],IC50,N. fowleri ENO (NfENO); [11],> 10000 nM
same,IC50,[1]; [12],> 10000 nM
same,EC50,[2]; [13],> 10000 nM
O=C1C(P(=O)(O)O)CCCCN1OCc1ccccc1 (centres unmarked) [Benzyl-HEPTA],IC50,N. fowleri ENO (NfENO); [11],> 10000 nM
same,IC50,[1]; [12],> 10000 nM
same,EC50,[2]; [13],> 10000 nM
O=C1C(P(=O)(O)O)CCCN1OCc1ccccc1 (centres unmarked) [BenzylHEX],impact on NfENO,N. fowleri ENO (NfENO); at 10 μM,no impact
same,IC50,N. fowleri ENO (NfENO); [11],> 10000 nM
same,IC50,[1]; [12],> 10000 nM
same,EC50,[2]; [13],> 10000 nM
CC(C)OC(=O)[C@H](C)NP(=O)(OCOC(=O)C(C)(C)C)C1CCCN(O)C1=O (some centres unmarked) [CDP25],IC50,N. fowleri ENO (NfENO),> 10000 nM
same,EC50,[2]; [13],310 ± 150 nM
same,CC50 at 48 h,[3],> 5000 nM
"O=C1C(P(=O)(O)O)CCN1O (centres unmarked) [Deoxy-SF2312, (1-hydroxy-2-oxopyrrolidin-3-yl) phosphonic acid]",IC50,N. fowleri ENO (NfENO),1200 ± 470 nM
same,IC50,[1],100 ± 40 nM
same,fold more potent against ENO2 than NfENO,[1]; ratio of IC50 values,more than 10 fold
same,EC50,[2]; [13],950 ± 200 nM
same,CC50 at 48 h,[3],> 200000 nM
"O=C1C(P(=O)(O)O)CCCCN1O (centres unmarked) [HEPTA, (1-hydroxy-2-oxoazepan-3-yl) phosphonic acid]",IC50,N. fowleri ENO (NfENO),4700 ± 1400 nM
same,IC50,[1],5800 ± 880 nM
same,EC50,[2]; [13],> 10000 nM
"O=C1C(P(=O)(O)O)CCCN1O (centres unmarked) [HEX, (1-hydroxy-2-oxopiperidin-3-yl) phosphonic acid]",IC50,N. fowleri ENO (NfENO),140 ± 40 nM
same,mode of NfENO inhibition,N. fowleri ENO (NfENO),competitive inhibitor
same,IC50,[1],360 ± 40 nM
same,EC50,[2]; [13],210 ± 20 nM
same,EC50,"[2]; ATCC30215, 336 h, read-out: EC50 of trophozoites cultured from brain of HEX-treated rodent",90 ± 40 nM
same,EC50,"[2]; ATCC30215, 336 h, read-out: EC50 of trophozoites cultured from brain of PBS-treated (Vehicle) rodent",100 ± 80 nM
same,EC50,"[2]; ATCC30215, 504 h, read-out: EC50 after removal of selection",110 ± 10 nM
same,EC50,"[2]; ATCC30215, read-out: EC50 in glycerol medium",2500 ± 110 nM
same,EC50,"[2]; ATCC30215, read-out: EC50 of HEX-adapted amoebae",570 ± 300 nM
same,impact on growth,N. gruberi,no impact
same,impact on growth,Balamuthia mandrillaris,no impact; also recorded: inactive
same,impact on growth,Entamoeba histolytica,no impact
same,decrease in pyruvate levels,N. fowleri trophozoites,~50%
same,median survival time,"[4]; HEX 3 mg/kg nasal instillation for 10 days, >50% of the population survived",indeterminable; also recorded: undefined
same,animals remaining at conclusion of treatment,"[4]; day 11, HEX 3 mg/kg nasal instillation once a day for 10 days from day 2",11 of 12
same,survivors with brains positive for amoebae by culture,[4]; of the eight HEX-treated survivors,six of the eight and six
same,adverse effects of intranasal instillation,[5],none of the rats had any noticeable reaction to treatment
same,EC50,[6],8060 ± 2600 nM
same,CC50,[7],> 300000 nM
same,intracranial tumor growth,[8],almost completely inhibited intracranial tumor growth
same,plasma concentrations,"[9]; IP 300 mg/kg, for several hours",about 750 μM
same,IP dose tolerated without adverse effects,[9]; IP,300 mg/kg
same,plasma elimination half-life,[10],about 60 minutes
same,CC50,Human cell line; [14],> 300000 nM
same,EC50,ENO1-/- glioma cells,1300 nM
CC(C)(C)C(=O)OCOP(=O)(OCOC(=O)C(C)(C)C)C1CCCN(O)C1=O (centres unmarked) [POMHEX],IC50,N. fowleri ENO (NfENO); [11],> 10000 nM
same,IC50,[1]; [12],> 10000 nM
same,EC50,[2]; [13],700 ± 100 nM
same,CC50,Human cell line; [14],> 4900 nM
CC(C)(C)C(=O)OCOP(=O)(OCOC(=O)C(C)(C)C)C1CC(O)N(O)C1=O (centres unmarked) [POMSF],IC50,N. fowleri ENO (NfENO); [11],> 10000 nM
same,IC50,[1]; [12],> 10000 nM
same,increase in amoebicidal potency relative to SF2312,[2]; EC50 ratio,about 2.4 fold
same,EC50,[2]; [13],660 ± 90 nM
"O=C1C(P(=O)(O)O)CC(O)N1O (centres unmarked) [SF2312, (1,5-dihydroxy-2-oxopyrrolidin-3-yl) phosphonic acid, reference compound]",IC50,N. fowleri ENO (NfENO),310 ± 70 nM
same,IC50,[1],630 ± 10 nM
same,EC50,[2]; [13],1600 ± 110 nM
same,CC50,"Human cell line; value with superscript 1 in Fig 1, footnote not given, ref superscript 1",> 200000 nM

# Reference: publication PMC11321563, “Enolase inhibitors as therapeutic leads for Naegleria fowleri infection” (PLOS Pathogens, 2024)
